Reference: patent US10882818B1, “P-bromoaniline cassic acid ester with antibacterial activity and a method of preparing the same” (ZHUHAI JINAN SELENIUM SOURCE NANOTECHNOLOGY CO., LTD., priority 2020, dated 2021)
In brackets after ≈: the same amount, converted by molar mass.

Columns and labels:
Format in all cases: cell-based
[1] = tested on: multidrug-resistant Pseudomonas aeruginosa MDR-PA 18-174; assay: Antibacterial activity test, MIC by microbroth dilution; settings: for Minimum bacteriostatic concentration: MDR-PA 18-174, microbroth dilution, 37° C., 20-22 hours
Description: (§1) The minimal inhibitory concentration (MIC) of the compounds as determined by microbroth dilution method with gentamicin, cefazolin sodium and ceftriaxone sodium as positive control.
(§2) The experimental strains included methicillin-resistant Gram-positive bacteria: methicillin-resistant Staphylococcus aureus MRSA 18-222, 18-575; multiple drug-resistant Gram-negative bacteria: vancomycin-resistant enterococci VRE 18-80, 18-94, multidrug-resistant Pseudomonas aeruginosa MDR-PA 18-1774, 18-202, carbapenem-resistant Acinetobacter baumannii CR-AB 18-183, 18-560. All the experimental strains were donated by Huashan Hospital affiliated to Fudan University (Institute of Antibiotics, Fudan University) and used after routine identification.
(§3) Preparation of MHB medium: 20.0 g MHB medium was added to 1 L distilled water, boiled until completely dissolved, packed in conical bottles and sterilized at 121° C. for 15 min.
(§4) The experimental strain was cultured to the logarithmic growth phase: under aseptic condition, the experimental strain was inoculated into 100 mL MHB medium and incubated in a constant temperature and humidity incubator at 37° C. for 20-22 hours.
(§5) Preparation of storage solution: weighing the sample to be tested, dissolving it with 1% DMSO solution, preparing a storage solution with a concentration of 2560 μg/mL; weighing a positive reference substance, dissolving it with aseptic distilled water, and configuring a storage solution with a concentration of 2560 μg/mL.
(§6) Preparation of bacterial suspension: under aseptic condition, the experimental strains cultured to logarithmic growth phase were adjusted to 0.5 MCF turbidity standard with MHB medium and diluted according to 1:10, and the bacterial suspension with concentration of 10^6 CFU/mL was prepared for standby.
(§7) Dilution of storage solution and inoculation of experimental strain: under aseptic condition, the storage solution was diluted to 256 μg/mL solution; taking a sterile 96-well plate, adding 200 μL MHB medium to the 12th well, and adding 100 μL MHB medium to each well; adding 100 μL of positive control solution to the first well, mixing well, and sucking 100 μL from it and discarding; adding 100 μL of the compound sample solution to the second well, mixing well, and then pipetting 100 μL to the third well; after mixing, pipetting 100 μL to the fourth well, and diluting to the 11th well in this way; finally, 100 μL was pipetted from the 11th well and discarded, the 12th hole was the growth control without drugs. The concentration of the positive reference substance is 128 μg/mL; the concentrations of the sample solution are 128, 64, […], 8, 4, 2, 1, 0.5, 0.25 μg/mL, respectively. Then, 100 μL of the prepared bacterial suspension is added to each well, so that the final concentration of the bacterial liquid in each well is 5×10^5 CFU/mL.
(§8) Incubation: covering the 96-well plate inoculated with the experimental strains, and incubating in a constant temperature and humidity box at 37° C. for 20-22 hours.
In FIGS. 1-6, the twelve wells represent twelve groups, from left to right, positive, 128 μg/mL, 64 μg/mL, 32 μg/mL, 16 μg/mL, 8 μg/mL, 4 μg/mL, 2 μg/mL, 1 μg/mL, […], Negative.

[2] = tested on: vancomycin-resistant enterococci VRE 18-80; assay: as above; settings: 37° C., 20-22 hours
Description: as §1, §2, §3, §4, §5, §6, §7, §8

[3] = tested on: methicillin-resistant Staphylococcus aureus MRSA 18-222; assay: as above; settings: 37° C., 20-22 hours
Description: as §1, §2, §3, §4, §5, §6, §7, §8

[4] = tested on: vancomycin-resistant enterococci VRE 18-94; assay: as above; settings: for Minimum bacteriostatic concentration: VRE 18-94, microbroth dilution, 37° C., 20-22 hours
Description: as §1, §2, §3, §4, §5, §6, §7, §8

[5] = tested on: methicillin-resistant Staphylococcus aureus MRSA 18-575; assay: as above; settings: 37° C., 20-22 hours
Description: as §1, §2, §3, §4, §5, §6, §7, §8

[6] = tested on: carbapenem-resistant Acinetobacter baumannii CR-AB 18-560; assay: as above; settings: 37° C., 20-22 hours
Description: as §1, §2, §3, §4, §5, §6, §7, §8

[7] = tested on: carbapenem-resistant Acinetobacter baumannii CR-AB 18-183; assay: as above; settings: 37° C., 20-22 hours
Description: as §1, §2, §3, §4, §5, §6, §7, §8

[8] = tested on: multidrug-resistant Pseudomonas aeruginosa MDR-PA 18-202; assay: as above; settings: 37° C., 20-22 hours
Description: as §1, §2, §3, §4, §5, §6, §7, §8

drug-resistant bacteria = assay: Antibacterial activity test, overall result on the strain panel; settings: all experimental strains, up to 128 μg/mL
Description: as §1, §2, §3
The experimental strain was cultured to the logarithmic growth phase: under aseptic condition, the experimental strain was inoculated into 100 mL MHB medium and incubated in a constant temperature and humidity incubator at 37° C. for 20-22 hours. […]

Molecule | Minimum bacteriostatic concentration [1] [µg/mL] | MIC ([1]; multi-drug resistant Pseudomonas aeruginosa MDR-PA (strain number not given)) [µg/mL] | Minimum bacteriostatic concentration [2] [µg/mL] | Minimum bacteriostatic concentration [3] [µg/mL] | MIC ([4]; Enterococcus, vancomycin-resistant enterococci VRE 18-94) [µg/mL] | Minimum bacteriostatic concentration [4] [µg/mL] | Minimum bacteriostatic concentration [5] [µg/mL] | Minimum bacteriostatic concentration [6] [µg/mL] | Minimum bacteriostatic concentration [7] [µg/mL] | Minimum bacteriostatic concentration [8] [µg/mL] | inhibitory effect on drug-resistant bacteria (drug-resistant bacteria)
O=C(Nc1ccc(Br)cc1)c1cc(O)c2c(c1)C(=O)c1cccc(O)c1C2=O [p-Bromoaniline cassic acid ester, N-(4-bromophenyl)-4,5-dihydroxy-9,10-dioxo-9,10-dihydroanthracene-2-carboxamide] | 32 | 32 (≈ 73 µM) | >128 | >128 | 128 (≈ 292 µM) | 128 | >128 | >128 | >128 | >128 | –
Nc1ccc(Br)cc1 [P-Bromoaniline, P-bromoaniline] | >128 | – | >128 | >128 | – | >128 | >128 | >128 | >128 | >128 | no inhibitory effect
gentamicin | 0.0625 | – | 0.0625 | 128 | – | >128 | 2 | >128 | >128 | 0.0625 | –
O=C(O)c1cc(O)c2c(c1)C(=O)c1cccc(O)c1C2=O [Cassic acid] | >128 | – | >128 | >128 | – | >128 | >128 | >128 | >128 | >128 | no inhibitory effect
Cc1nnc(SCC2=C(C(=O)O)N3C(=O)[C@@H](NC(=O)Cn4cnnn4)[C@H]3SC2)s1 [Cefazolin sodium, cefazolin sodium] | 8 | – | 32 | >128 | – | >128 | >128 | >128 | >128 | 128 | –
CO/N=C(\C(=O)N[C@@H]1C(=O)N2C(C(=O)O)=C(CSc3nc(=O)c(=O)[nH]n3C)CS[C@H]12)c1csc(N)n1 [Ceftriaxone sodium, ceftriaxone sodium] | 128 | – | 8 | >128 | – | >128 | >128 | >128 | >128 | 16 | –
